Data taken from BindingDB's records for patent US20240043440 (Case Western Reserve University, 2024).

Each compound was assayed against T1, 15-hydroxyprostaglandin dehydrogenase [NAD(+)] (Homo sapiens, UniProt P15428) (assay: In vitro Assay (5 nM)).
T1 sequence (P15428 whole entry): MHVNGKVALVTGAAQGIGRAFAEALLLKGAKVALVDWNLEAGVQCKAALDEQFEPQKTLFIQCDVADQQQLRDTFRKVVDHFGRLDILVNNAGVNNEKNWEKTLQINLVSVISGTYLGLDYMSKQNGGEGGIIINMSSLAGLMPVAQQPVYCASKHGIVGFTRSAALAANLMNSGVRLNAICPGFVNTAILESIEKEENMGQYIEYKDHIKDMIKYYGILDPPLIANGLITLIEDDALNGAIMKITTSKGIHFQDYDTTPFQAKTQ
Experimental: Each compound for inhibiting enzymatic activity of recombinant 15-PGDH (5 nM) in an in vitro assay.

Row | IC50 | Structure (SMILES)
1 | 1.4 nM | CCCC[S+]([O-])c1sc2nc(-c3nccs3)cc(-c3cn(C)cn3)c2c1N (centres undefined) [US20240043440, Example 28]
2 | 2.7 nM | CCCC[S+]([O-])c1sc2nc(-c3nccs3)cc(-c3cnccn3)c2c1N (centres undefined) [US20240043440, Example 1]
3 | 1.4 nM | CCCC[S@@+]([O-])c1sc2nc(-c3nccs3)cc(-c3nccn3CC)c2c1N [US20240043440, Example 29]
4 | 2.6 nM | CCCC[S+]([O-])c1sc2nc(-c3nccs3)cc(-c3ncccn3)c2c1N (centres undefined) [US20240043440, Example 8]
